Experimental data published in US6551790B2, “Process for glucuronidation screening” (PanVera LLC, priority 1998, dated 2003).
Positions count from the first letter of the chain named. Numbers in names are those of the source. Unless stated, no cut-off for active and inactive is given here. Entries after “also recorded” stand apart in the source; their conditions may differ. Like-named read-outs stand apart in the source and are kept apart here.

Tests used:
[1] = cited from earlier work
[2] = molecular target: T1, UGT2B7 (Homo sapiens, UniProt P16662)
T1 sequence (P16662 24-529): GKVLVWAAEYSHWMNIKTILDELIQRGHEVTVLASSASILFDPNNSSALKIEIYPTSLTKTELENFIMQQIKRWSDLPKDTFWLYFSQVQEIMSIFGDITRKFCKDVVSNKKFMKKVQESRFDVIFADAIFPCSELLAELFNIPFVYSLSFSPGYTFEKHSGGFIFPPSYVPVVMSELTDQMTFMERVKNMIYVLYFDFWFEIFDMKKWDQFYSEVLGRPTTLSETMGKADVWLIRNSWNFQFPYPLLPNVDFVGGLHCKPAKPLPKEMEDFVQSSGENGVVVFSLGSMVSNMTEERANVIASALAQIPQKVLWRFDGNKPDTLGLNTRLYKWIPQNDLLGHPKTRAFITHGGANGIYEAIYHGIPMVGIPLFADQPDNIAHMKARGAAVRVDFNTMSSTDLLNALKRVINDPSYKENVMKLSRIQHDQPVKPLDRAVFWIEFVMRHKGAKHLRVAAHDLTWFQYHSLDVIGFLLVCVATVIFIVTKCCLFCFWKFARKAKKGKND
Excerpt: Heterologous expression and characterization of full length UGT 2B7.
Stable UGT2B7 cell lines were established from embryonic human kidney cells (HK293 cells) and microsomal membrane fractions from these cells were used to assess the properties of the recombinant enzyme. […] The specificity of the purified UGT2B7 will be assessed by determining overall catalytic efficiency with each aglycone substrate, as reflected in a ratio of the two fundamental Michaelis kinetic parameters, Vmax/Km. Reaction rates will be determined over a range of substrate concentrations and nonlinear regression will be used to fit the UGT rate data to velocity versus substrate curves (Graph Pad, Prism). Vmax/Km values will be determined and compared with those determined with the enzyme isolated from HK293 cells (Table 1). […] This ratio will be determined for the purified enzyme using HPLC-based methods for separation and quantification of the two glucuronides.

[3] = molecular target: T2, UGT2B7Y(268) (Homo sapiens, UniProt P16662)
T2 sequence (P16662 24-529): T1 sequence (P16662 24-529)

[4] = molecular target: T3, UGT2B7H(268) (Homo sapiens, UniProt P16662, Y268H)
T3 sequence (P16662 24-529 Y268H): T1 sequence (P16662 24-529) with Y245H

[5] = molecular target: T2, UGT2B7Y(268); experiment: in vitro
[6] = molecular target: T3, UGT2B7H(268); experiment: in vitro
[7] = molecular target: T2, UGT2B7Y(268); experiment: Kinetics of glucuronidation, membrane preparations of HK293 cells stably expressing UGT2B7Y(268)
[8] = molecular target: T3, UGT2B7H(268); experiment: Kinetics of glucuronidation, membrane preparations of HK293 cells stably expressing UGT2B7H(268)
[9] = molecular target: T4, bacterial β-glucuronidase (Escherichia coli, UniProt P05804); experiment: Inhibition of 4-methylumbelliferyl-β-D-glucuronide cleavage by β-D-glucuronides; assay type: biochemical; design: purchased Sigma, St. Louis Mo; G-7396; settings: for inhibition of 4-methylumbelliferyl-β-D-glucuronide cleavage (production of 4-methylumbelliferone): FIG. 2, varying glucuronide concentrations
Excerpt: FIG. 2 depicts the effect of varying concentrations of β-D-glucuronide on the ability of β-glucuronidase to cleave various substrates.
Tetrahydrocortisone 3-β-D-glucuronide was obtained from Molecular Probes, Eugene, Oreg. Recombinant control and UGT1A6 membrane preparations were generated and are commercially available from PanVera Corporation, Madison Wis. All other reagents were analytical grade or better and purchased from a variety of commercial sources.
In order to show the feasibility of developing a high throughput inhibition assay, we examined the potential of a variety of structurally dissimilar, commercially available β-D-glucuronides to act as inhibitors for the cleavage of 4-methylumbelliferyl-β-D-glucuronide. These β-D-glucuronides represent compounds that might potentially be formed by UGT activity e.g. phenol and steroid glucuronides.

[10] = molecular target: recombinant human UGT1A6 (Homo sapiens, UniProt P19224)
Procedure: Two approaches were taken to test the feasibility of coupling the UGT-dependent production of glucuronides to inhibition of fluorescent product formation by β-D-glucuronidase. The first involved extracting the UGT reaction products and adding them to the β-D-glucuronidase fluorescence assay reagents. The second involved adding the β-D-glucuronidase reaction components directly to the quenched UGT reaction. […] Following extraction, 4-methylumbelliferyl-β-D-glucuronide assay reagents were added to the extracted, dried reaction residues.
In the second approach, 4-methylumbelliferyl-β-D-glucuronide assay reagents were added directly to a β-naphthyl glucuronidation assay that was performed in a 96 well plate. […] The horogeneous format circumvented the need for extraction, but required longer incubation periods with the recombinant enzyme.
After identifying a suitable β-glucuronidase and determining the optimal concentrations of vious assay components, the fluorescent assay was tested for its ability to detect β-glucuronides generated by a recombinant UGT enzyme. […] To establish the feasibility of performing the assay in an HTS format, the assay was conducted in a 96 well plate in a homogenous format, i.e., without extracting the glucuronide produced in the UGT reaction prior to starting the β-glucuronidase reaction.

[11] = molecular target: T2, UGT2B7Y(268); settings: reported by one laboratory; cited from earlier work
[12] = molecular target: T3, UGT2B7H(268); settings: reported by another laboratory; cited from earlier work
[13] = molecular target: T4, bacterial β-glucuronidase; settings: read-out: apparent Km value for cleavage by β-glucuronidase; linear conditions of protein concentration and incubation time; FIG. 1
[14] = substrate: C=CCN1CC[C@]23c4c5ccc(O)c4O[C@H]2C(=O)CC[C@@]3(O)[C@H]1C5; experiment: cells, lysate or membranes named; settings: two values = two different passages of cultured cells
[15] = substrate: C=CCN1CC[C@]23c4c5ccc(O)c4O[C@H]2[C@@H](O)C=C[C@H]3[C@H]1C5; experiment: cells, lysate or membranes named
[16] = substrate: CN1CC[C@]23c4c5ccc(O)c4O[C@H]2C(=O)CC[C@@]3(O)[C@H]1C5; experiment: cells, lysate or membranes named
[17] = substrate: O=C1CC[C@@]2(O)[C@H]3Cc4ccc(O)c5c4[C@@]2(CCN3CC2CC2)[C@H]1O5; experiment: cells, lysate or membranes named; settings: two values = two different passages of cultured cells

T4 sequence (P05804 whole entry): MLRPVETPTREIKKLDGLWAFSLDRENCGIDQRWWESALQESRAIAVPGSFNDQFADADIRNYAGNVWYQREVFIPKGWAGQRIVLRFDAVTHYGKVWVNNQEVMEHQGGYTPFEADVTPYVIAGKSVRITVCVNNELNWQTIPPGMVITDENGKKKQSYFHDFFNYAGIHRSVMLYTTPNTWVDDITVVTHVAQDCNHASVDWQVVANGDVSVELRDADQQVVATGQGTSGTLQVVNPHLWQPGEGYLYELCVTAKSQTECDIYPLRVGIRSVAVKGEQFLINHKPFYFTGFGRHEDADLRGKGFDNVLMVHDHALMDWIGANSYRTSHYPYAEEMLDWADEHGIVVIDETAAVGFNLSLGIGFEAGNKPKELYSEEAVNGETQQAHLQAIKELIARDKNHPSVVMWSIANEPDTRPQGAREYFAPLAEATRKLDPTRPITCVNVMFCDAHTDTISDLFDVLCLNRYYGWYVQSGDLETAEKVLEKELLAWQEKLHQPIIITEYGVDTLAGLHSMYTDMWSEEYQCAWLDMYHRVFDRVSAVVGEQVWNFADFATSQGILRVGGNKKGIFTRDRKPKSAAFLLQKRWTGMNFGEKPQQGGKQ
Chain of recombinant human UGT1A6 (P19224 27-532): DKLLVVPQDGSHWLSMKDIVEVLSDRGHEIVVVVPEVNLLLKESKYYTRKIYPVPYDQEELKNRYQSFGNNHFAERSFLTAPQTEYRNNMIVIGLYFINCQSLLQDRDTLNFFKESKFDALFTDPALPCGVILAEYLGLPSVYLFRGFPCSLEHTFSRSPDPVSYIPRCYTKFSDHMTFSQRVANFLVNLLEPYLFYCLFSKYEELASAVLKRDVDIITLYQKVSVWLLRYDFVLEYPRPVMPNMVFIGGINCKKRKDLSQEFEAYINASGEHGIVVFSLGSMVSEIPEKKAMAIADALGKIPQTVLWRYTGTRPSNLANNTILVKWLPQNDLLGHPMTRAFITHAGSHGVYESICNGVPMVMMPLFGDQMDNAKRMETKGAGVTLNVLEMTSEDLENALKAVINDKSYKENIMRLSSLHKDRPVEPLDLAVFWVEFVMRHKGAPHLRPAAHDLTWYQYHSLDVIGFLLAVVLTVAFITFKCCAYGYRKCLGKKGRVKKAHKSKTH

Molecule: CN1CC[C@]23c4c5ccc(O)c4O[C@H]2[C@@H](O[C@@H]2O[C@H](C(=O)O)[C@@H](O)[C@H](O)[C@H]2O)C=C[C@H]3[C@H]1C5 [morphine-6-O-glucuronide]
- effectiveness as an analgesic relative to the parent compound ([1]; clinical studies, versus morphine): 2-3 times

Molecule: C=CCN1CC[C@]23c4c5ccc(O)c4O[C@H]2[C@@H](O)C=C[C@H]3[C@H]1C5 [nalorphine]
- Glucuronidation activity towards opioids [2]: demonstrated

Molecule: COc1ccc2c3c1O[C@H]1[C@@H](O)C=C[C@H]4[C@@H](C2)N(C)CC[C@@]341 [codeine]
- Glucuronidation activity towards opioids [2]: demonstrated
- conversion to the 6-O-glucuronide by UGT2B7 [2]: efficiently converted
- efficiency ratio of glucuronidation, 3-OH to 6-OH ([2]; human, pH 7.7): 7 to 1
- Km ([3]; human): 360 µM
- Km ([4]; human): 550 µM
- Km [5]: 230 µM
- Km [6]: 791 µM
- Vmax [7]: 190, 40 pmol/min/mg protein
- Vmax [8]: 97, 110 pmol/min/mg protein

Molecule: C[C@]12CC[C@@H]3c4ccc(O[C@@H]5O[C@H](C(=O)O)[C@@H](O)[C@H](O)[C@H]5O)cc4CC[C@H]3[C@@H]1CC[C@@H]2O [β-estradiol-3-(β-D-glucuronide)]
- inhibition of 4-methylumbelliferyl-β-D-glucuronide cleavage (production of 4-methylumbelliferone) [9]: strongest
- inhibition of 4-methylumbelliferyl-β-D-glucuronide cleavage (production of 4-methylumbelliferone) ([9]; listed as estradiol β-D-glucuronide): More potent inhibitors

Molecule: CC(C)NC[C@@H](O)COc1cccc2ccccc12 [R-propanolol]
- Efficiency Vmax/Km (x100) [3]: 53
- Km [3]: 180 µM
- Efficiency Vmax/Km (x100) [4]: 192
- Vmax [7]: 96 pmol/min/mg protein
- Vmax [8]: 194, 86 pmol/min/mg protein

Molecule: O=C(O)[C@H]1O[C@@H](Oc2cccc3ccccc23)[C@H](O)[C@@H](O)[C@@H]1O [α-naphthyl β-D-glucuronide]
- inhibition of 4-methylumbelliferyl-β-D-glucuronide cleavage (production of 4-methylumbelliferone) [9]: weakest; also recorded: weak competitor
- inhibition of 4-methylumbelliferyl-β-D-glucuronide cleavage (production of 4-methylumbelliferone) ([9]; listed as α-naphthol β-D-glucuronide): weak competitive inhibitor

Molecule: CN1CC[C@]23c4c5ccc(O)c4O[C@H]2[C@@H](O)C=C[C@H]3[C@H]1C5 [morphine]
- Glucuronidation activity towards opioids [2]: demonstrated

Molecule: CC(C)NC[C@H](O)COc1cccc2ccccc12 [S-propanolol]
- Efficiency Vmax/Km (x100) [3]: 38, 259
- Efficiency Vmax/Km (x100) [4]: 205
- Km [4]: 72 ± 19 µM
- Vmax [7]: 70, 140 pmol/min/mg protein
- Vmax [8]: 148 ± 30 pmol/min/mg protein

Molecule: Oc1cccc2ccccc12 [α-naphthol]
- 4-methylumbelliferyl β-D-glucuronide cleavage slower with UGT1A6 assay compared to control [10]: 60%
- non-specific interference of the aglycone with the cleavage assay ([9]; residues from 0 time point extractions, FIG. 3 panel A): does not interfere non-specifically

Molecule: O=C1CC[C@@]2(O)[C@H]3Cc4ccc(O)c5c4[C@@]2(CCN3CC2CC2)[C@H]1O5 [naltrexone]
- Vmax [7]: 840, 1130 pmol/min/mg protein

Molecule: CC1CCC(C(C)C)C(O)C1 (stereo not shown) [menthol]
- activity toward glucuronide formation [11]: active
- activity toward glucuronide formation [12]: inactive

Molecule: CN1CC[C@]23c4c5ccc(O[C@@H]6O[C@H](C(=O)O)[C@@H](O)[C@H](O)[C@H]6O)c4O[C@H]2[C@@H](O)C=C[C@H]3[C@H]1C5 [morphine-3-O-glucuronide]
- analgesic effects ([1]; human, in vivo): devoid of analgesic effects
- effect on the analgesic activity of morphine and morphine-6-O-glucuronide ([1]; human, in vivo): counteract

Molecule: C=CCN1CC[C@]23c4c5ccc(O)c4O[C@H]2C(=O)CC[C@@]3(O)[C@H]1C5 [naloxone]
- Glucuronidation activity towards opioids [2]: demonstrated
- Vmax ([7]; UGT2B7Y, two values = two different passages of cultured cells): 2550 pmol/min/mg protein
- Vmax ([8]; UGT2B7H, two values = two different passages of cultured cells): 4530 pmol/min/mg protein

Molecule: Cc1cc(=O)oc2cc(O[C@@H]3O[C@H](C(=O)O)[C@@H](O)[C@H](O)[C@H]3O)ccc12 [4-methylumbelliferyl-β-D-glucuronide]
- Km [13]: ~56 µM

Molecule: O=C(O)[C@H]1O[C@H](OP(=O)(O)OP(=O)(O)OC[C@H]2O[C@@H](n3ccc(=O)[nH]c3=O)[C@H](O)[C@@H]2O)[C@H](O)[C@@H](O)[C@@H]1O [UDPGA, Uridine 5′-diphosphoglucuronic acid]
- inhibition of 4-methylumbelliferyl-β-D-glucuronide cleavage (production of 4-methylumbelliferone) [9]: not an effective competitor

B1: UGT2B7Y(268) (Homo sapiens) (protein)
chain: T1 sequence (P16662 24-529)
- Km ([14]; other: UGT2B7Y): 50, 40 μM
- Vmax ([14]; other: UGT2B7Y): 3750, 2550 pmol/min/mg protein
- Km [15]: 77, 121 μM
- Vmax [15]: 2870, 3650 pmol/min/mg protein
- Km [16]: 1360, 900 μM
- Vmax [16]: 5640, 6040 pmol/min/mg protein
- Km ([17]; other: UGT2B7Y): 140, 180 μM

B2: UGT2B7H(268) (Homo sapiens; Y268H) (protein)
chain: T1 sequence (P16662 24-529) with Y245H
- Km ([14]; other: UGT2B7H): 41, 60 μM
- Vmax ([14]; other: UGT2B7H): 3810, 4530 pmol/min/mg protein
- Km [15]: 141, 171 μM
- Vmax [15]: 3990, 4670 pmol/min/mg protein
- Km [16]: 540, 670 μM
- Vmax [16]: 7510, 8570 pmol/min/mg protein
- Km ([17]; other: UGT2B7H): 63, 200 μM
